# Measurements taken from patent US20160184459A1, “CANCER CELL SPECIFIC IMAGING PROBES AND METHODS OF USE” (THE RESEARCH FOUNDATION FOR THE STATE UNIVERSITY OF NEW YORK, priority 2013, published 2016).
# How the values were obtained:
# [1] = test system: Puro incorporation in tumors, muscle and kidney; test: Immunoblotting of Puro-labeled proteins in tissue lysates of HT29 xenograft mice; type: in vivo, mouse; conditions: 150 mg/kg/dose daily intraperitoneal for 3 d
# Method: FIG. 29. In vivo anticancer efficacy of Boc-KAc-Puro. (a) Tumor growth in HCT116 xenograft model. Animals were treated with acidified saline control or Boc-KAc-Puro (50 or 150 mg/kg). Values are mean±s.d. (n=5 mice per group). *** P<0.001 compared to the control group. P=0.000716 (50 mg/kg), P=0.000349 (150 mg/kg) at 10 d. (b) Body weight change during the treatment in a and was monitored as a sign of general animal health. Values are mean±s.d. (c) Tumor growth in HT29 xenograft model. Animals were treated with acidified saline control or Boc-KAc-Puro (150 mg/kg). Values are mean±s.d. (n=5 mice per group). *** P<0.001 compared to the control group. P=0.000514 (150 mg/kg) at 10 d. (d) Body weight change during the treatment in c was monitored as a sign of general animal health. Values are mean±s.d. (e) Levels of Puro-incorporated proteins were monitored by immunoblotting. […]
# Cultured cells or tissue samples were sonicated in RIPA lysis buffer (1% NP-40, 0.1% SDS, 50 mM Tris-HCl pH 7.4, 150 mM NaCl, 0.5% sodium deoxycholate, 1 mM EDTA) supplemented with PMSF and protease inhibitor cocktail (Roche) on ice followed by clarification. […] Proteins of interest were detected with anti-mouse secondary antibody by chemiluminescence (ECL Kit, GE Healthcare Life Sciences). […]
# [2] = Toxicity / body weight change in mice; type: in vivo, mouse
# Source text: FIG. 20. In vivo anticancer efficacy of BKAc-Puro. […] HCT116 cells were implanted subcutaneously into female nude mice. When the developed tumors reached 200 mm^3, animals were intraperitoneally injected by the indicated dose of the compound or vehicle control (DMSO). Tumor volume was estimated by the equation vol=(a×b^2)/2, where vol, a, and b represent volume, the length of the major axis, and the length of the minor axis, respectively. Arrows indicate the time points of treatment. (b) Body weight change during the treatment in a. Value is expressed in percent change compared to the day of the first treatment.
# FIG. 21. HCT116 cells were implanted subcutaneously into female nude mice. When palpable tumors reached 50-150 mm^3, animals were randomized and treated by the indicated dose of the compound or vehicle control (DMSO) via intraperitoneal injection. Tumor incidence is presented as number of mice developed tumor (volume >300 mm^3) after 2 weeks of daily treatment/number of mice treated. Tumor volume was estimated by the equation vol=(a×b^2)/2, where vol, a, and b represent volume, the length of the major axis, and the length of the minor axis, respectively.
# FIG. 22. Dose escalation toxicity study. Female nude mice (8-10 weeks old) were treated with the indicated dose of BKAc-Puro (7, 20, 67, 200, and 400 mg/kg; n=3 in each treatment group). Body weight change during the treatment is expressed in percent change compared to the day of the first treatment. Arrows indicate the time points of treatment. Data represent mean values±s.d. (n=3).
# FIG. 29. In vivo anticancer efficacy of Boc-KAc-Puro. (a) Tumor growth in HCT116 xenograft model. Animals were treated with acidified saline control or Boc-KAc-Puro (50 or 150 mg/kg). Values are mean±s.d. (n=5 mice per group). *** P<0.001 compared to the control group. P=0.000716 (50 mg/kg), P=0.000349 (150 mg/kg) at 10 d. (b) Body weight change during the treatment in a and was monitored as a sign of general animal health. Values are mean±s.d. (c) Tumor growth in HT29 xenograft model. Animals were treated with acidified saline control or Boc-KAc-Puro (150 mg/kg). Values are mean±s.d. (n=5 mice per group). *** P<0.001 compared to the control group. P=0.000514 (150 mg/kg) at 10 d. (d) Body weight change during the treatment in c was monitored as a sign of general animal health. Values are mean±s.d. (e) Levels of Puro-incorporated proteins were monitored by immunoblotting. Animals bearing HT29 xenograft tumor were given daily intraperitoneal administration of the prodrug at 150 mg/kg/dose for 3 d, followed by preparation of tissue lysates. The lower panel (anti-α-Tubulin) served as a loading control.
# [3] = test system: malignant cell lines with high HDAC and CTSL activity (COGA-10, HCA-7, HT29, HCT116); test: MTS cell viability assay, malignant colon cancer cell lines; type: cell-based; conditions: Homo sapiens, 120 h, 5 d, read-out: IC50, inhibition of cell viability
# Method: FIG. 13. Inhibition of cell viability by BKAc-Puro is presented in dose-response curve format for the same cell lines as in FIG. 8. The cell lines were treated with DMSO or the indicated doses of agent (4.22, 8.44, 16.9, 33.8, 67.5, or 135 μM) for 5 d followed by MTS assay. Data represent mean values of triplicate measurements±s.d. (n=3). IC50 values were fit by logistic regression.
# Cell number was determined by cell counting using improved Neubauer hemacytometer. Cell viability was calculated as the number of viable cells divided by the total number of cells using Trypan Blue Stain (Invitrogen) to distinguish non-viable cells. Data were obtained from duplicated samples with quadruplicate measurements. MTS based cell viability assay was performed using CellTiter 96 Aqueous Cell Proliferation Assay (Promega) according to the manufacturer's instruction. […] After additional 2-3 h incubation, the absorbance of the formazan at 490 nm was measured by the microplate reader. […] Determination of non-viable cells using PI staining was performed by adding 1 μg/ml of PI solution (Sigma) to the cell culture, prior to the examination under fluorescence microscopy (Axiovert 3, Carl Zeiss) through a×32 objective equipped with a digital imaging processor (Infinity 3, Lumenera).
structure (smiles),measurement,setting,value
"COc1ccc(CC(NC(=O)C(CCCCNC(C)=O)NC(=O)OC(C)(C)C)C(=O)NC2C(O)[C@H](n3cnc4c(N(C)C)ncnc43)O[C@@H]2CO)cc1 (stereo partly drawn) [BKAc-Puro, N-[3′-(α-Amino-p-methoxyhydrocinnamamido)-3′-deoxy-N,N-dimethyldenosinyl)-N-α-(t-butoxycarbonyl]-N-ε-acetyl-L-lysineamide]","Intensity of Puro incorporation, tumors versus normal muscle and kidney",[1],substantially greater in tumors
same,Tolerability judged by weight loss,[2]; 150 mg/kg/dose daily intraperitoneal for 10 d,well-tolerated
same,Toxicity,"[2]; 400 mg/kg, during and after 14 injections, HCT116 xenograft mice",No toxicity was observed
same,Toxicity,"[2]; tumor incidence study groups, daily intraperitoneal treatment",no toxicity was observed
same,"Systemic toxicity, dose escalation","[2]; up to 400 mg/kg, 5 consecutive daily injections, female nude mice",No severe systemic toxicity was observed
same,IC50,[3],~10 µM
